US9328083B2, “2-aminated methylene or 2-esterified methylene tanshinone derivatives, and preparation method and application thereof” (HANGZHOU BENSHENG PHARMACEUTICAL CO., LTD., priority 2011, dated 2016)
In brackets after ≈: the same amount, converted by molar mass.

What was measured:
[1] = test system: SGC-7901 human gastric adenocarcinoma cells; conditions: concentration dependent within a certain range, literature; cited from earlier work
[2] = background statement; cited from earlier work
[3] = test system: Jurkat (acute lymphoblastic leukemia, ALL); assay: MTT growth inhibition of leukemia cells, 72 h; format: cell-based, human; conditions: 72 h
Method in brief: (§1)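 Readout is MTT viable-cell determination after 72 h exposure (37° C, 5% CO2) to compounds added at several concentrations one day after plating 6000 cells/well. Medium RPMI-1640 plus 10% fetal bovine serum; working solutions made from a 10 mg/mL DMSO stock.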

[4] = test system: K562/adr (drug-resistant, chronic myeloid leukemia, CML); assay: MTT growth inhibition of leukemia cells, 72 h; format: cell-based, human; conditions: K562/ADR
Method in brief: as §1

[5] = test system: Kasumi-1 (acute myeloid leukemia M2 type, AML-M2); assay: MTT growth inhibition of leukemia cells, 72 h; format: cell-based, human; conditions: Kasumi-1, 72 h
Method in brief: as §1

[6] = test system: NB4 (acute promyelocytic leukemia, AML); assay: MTT growth inhibition of leukemia cells, 72 h; format: cell-based, human; conditions: NB4, 72 h
Method in brief: as §1

[7] = test system: H9 (acute lymphoblastic leukemia, ALL); assay: MTT growth inhibition of leukemia cells, 72 h; format: cell-based, human; conditions: H9, 72 h
Method in brief: as §1

tumor-bearing nude mice = conditions: literature; cited from earlier work
Hep G2 cells = conditions: in vitro, literature; cited from earlier work
[8] = background statement; cited from earlier work; remark: listed apart in the source
[9] = test system: SK-OV-3 (ovarian cancer cell); assay: MTT growth inhibition of human solid tumor cells, 72 h; format: cell-based; conditions: SK-OV-3, 72 h
Method in brief: (§2)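 Dosing: several concentrations of each derivative, prepared by medium dilution of a DMSO stock (10 mg/mL). Cells plated at 4000/well, 24 h prior. Viability determined at end.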

[10] = test system: Becap37 (human breast cancer cell); assay: as above; format: cell-based; conditions: Becap-37, 72 h
Method in brief: as §2

[11] = test system: Hela (human cervical cancer cell); assay: as above; format: cell-based; conditions: Hela, 72 h
Method in brief: as §2

A549 (human lung cancer) = assay: as above; format: cell-based; conditions: A549, 72 h
Method in brief: as §2

[12] = test system: Hep G2 (human liver cancer cell); assay: as above; format: cell-based; conditions: Hep G2, 72 h
Method in brief: as §2

[13] = test system: PANC-1 (pancreatic cancer); assay: as above; format: cell-based; conditions: PANC-1, 72 h
Method in brief: as §2

PC-3 (prostate cancer) = assay: as above; format: cell-based; conditions: PC-3, 72 h
Method in brief: as §2

MG63 (osteosarcoma) = assay: as above; format: cell-based; conditions: MG-63, 72 h
Method in brief: as §2

[14] = test system: CaES-17 (esophageal cancer cell); assay: as above; format: cell-based; conditions: CaEs-17, 72 h
Method in brief: as §2

[15] = test system: Hep-2 (laryngeal carcinoma); assay: as above; format: cell-based; conditions: HeP-2, 72 h
Method in brief: as §2

[16] = test system: U87 MG (malignant glioma cell); assay: as above; format: cell-based; conditions: U87-MG, 72 h
Method in brief: as §2

[17] = test system: RKO (human colon adenocarcinoma cell); assay: as above; format: cell-based
Method in brief: as §2

[18] = test system: MGC 803 (human gastric cancer cell); assay: as above; format: cell-based; conditions: MGC-803, 72 h
Method in brief: as §2

[19] = test system: CNE (nasopharyngeal carcinoma cell); assay: as above; format: cell-based
Method in brief: as §2

[20] = test system: RPMI8226 (multiple myeloma); assay: MTT growth inhibition of multiple myeloma cells, 72 h; format: cell-based, human; conditions: RPMI 8226, 72 h
Method in brief: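 Viability read by MTT after 72 h at 37° C, 5% CO2: compounds from a 10 mg/mL DMSO stock were diluted in medium and added at several concentrations to 6000 RPMI8226 cells per well in 1640 medium plus 10% FBS.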

Cc1coc2c1C(=O)C(=O)c1c-2ccc2c(C)cccc12 [TA, 1,6-dimethyl-phenanthreno [1,2-b]furan-10,11-diketone, reference compound]
growth of SGC-7901 cells cultured in vitro [1]: significant inhibitory effect
solubility in water [2]: poor solubility in water
IC50 [3]: 1.74 µg/mL (≈ 6.3 µM)
IC90 [3]: 8.42 µg/mL (≈ 30.5 µM)
IC50 [4]: 0.88 µg/mL (≈ 3.19 µM)
IC90 [4]: 4.17 µg/mL (≈ 15.1 µM)
IC50 [5]: 0.99 µg/mL (≈ 3.58 µM)
IC90 [5]: 3.62 µg/mL (≈ 13.1 µM)
IC50 [6]: 0.98 µg/mL (≈ 3.55 µM)
IC90 [6]: 2.50 µg/mL (≈ 9.05 µM)
IC50 [7]: 3.5 µg/mL (≈ 12.7 µM)
IC90 [7]: 13.06 µg/mL (≈ 47.3 µM)
tumor growth in tumor-bearing nude mice (tumor-bearing nude mice): can inhibit the tumor growth in the mice
proliferation of Hep G2 cells (Hep G2 cells): can inhibit the proliferation of Hep G2 cells
in vivo bioavailability [8]: low in vivo bioavailability
IC50 [9]: >16 µg/mL
IC90 [9]: >16 µg/mL
IC50 [10]: 3.03 µg/mL (≈ 11 µM)
IC90 [10]: >16 µg/mL
IC50 [11]: 4 µg/mL (≈ 14.5 µM)
IC90 [11]: >16 µg/mL
IC50 (A549 (human lung cancer)): 4.03 µg/mL (≈ 14.6 µM)
IC90 (A549 (human lung cancer)): 17.29 µg/mL (≈ 62.6 µM)
IC50 [12]: 2.19 µg/mL (≈ 7.93 µM)
IC90 [12]: 22.13 µg/mL (≈ 80.1 µM)
IC50 [13]: 2.7 µg/mL (≈ 9.77 µM)
IC90 [13]: >16 µg/mL
IC50 (PC-3 (prostate cancer)): 6.63 µg/mL (≈ 24 µM)
IC90 (PC-3 (prostate cancer)): 10.57 µg/mL (≈ 38.3 µM)
IC50 (MG63 (osteosarcoma)): 0.96 µg/mL (≈ 3.47 µM)
IC90 (MG63 (osteosarcoma)): >16 µg/mL
IC50 [14]: 3.18 µg/mL (≈ 11.5 µM)
IC90 [14]: 16.00 µg/mL (≈ 57.9 µM)
IC50 [15]: 3.15 µg/mL (≈ 11.4 µM)
IC90 [15]: >16 µg/mL
IC50 [16]: 6.36 µg/mL (≈ 23 µM)
IC90 [16]: 14.63 µg/mL (≈ 53 µM)
IC50 [17]: 1.83 µg/mL (≈ 6.62 µM)
IC90 [17]: >16 µg/mL
IC50 [18]: 1.62 µg/mL (≈ 5.86 µM)
IC90 [18]: 9.26 µg/mL (≈ 33.5 µM)
IC50 [19]: 7.4 µg/mL (≈ 26.8 µM)
IC90 [19]: >16 µg/mL
IC50 [20]: 0.96 µg/mL (≈ 3.47 µM)
IC90 [20]: 10.86 µg/mL (≈ 39.3 µM)
